Experimental findings from publication PMC3227451, “Structure-based development of novel sirtuin inhibitors” (Aging (Albany NY), 2011) are described below.

Structures are written as SMILES. Read-outs that look alike come from different tables or passages of the source.

Type in all cases: biochemical
The target in one test is T1, Sirt2 (Homo sapiens, UniProt Q8IXJ6).
T1 sequence (Q8IXJ6 34-356): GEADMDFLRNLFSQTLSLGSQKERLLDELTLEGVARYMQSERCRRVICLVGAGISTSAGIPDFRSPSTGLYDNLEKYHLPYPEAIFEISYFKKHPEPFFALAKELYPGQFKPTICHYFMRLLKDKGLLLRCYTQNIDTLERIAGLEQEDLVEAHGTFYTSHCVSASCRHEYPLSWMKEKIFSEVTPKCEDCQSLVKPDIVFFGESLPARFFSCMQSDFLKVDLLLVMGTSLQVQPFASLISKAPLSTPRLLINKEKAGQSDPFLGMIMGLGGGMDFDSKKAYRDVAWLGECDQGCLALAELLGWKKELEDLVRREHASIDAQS
In words: Fluor-de-Lys peptide deacetylation assay, Sirt2. Here is the method:
The Sirt2 construct was expressed in E. coli Rosetta2 cells (Merck) in LB/Ampicillin/Chloramphenicol medium. Cells were grown at 37 °C, and expression induced at an OD600 of 0.6-0.8 for 4 h with 0.5 mM IPTG. Harvested cells were resuspended in buffer A (50 mM Tris/HCl pH 7.8, 200 mM NaCl, 2 mM DTT), disrupted with a Sonifier, and cell debris removed by 40 min centrifugation at 4 °C, 18000 rpm in a HFA22.50 rotor. The supernatant was supplemented with 10 mM imidazole and incubated with Ni-NTA resin for 1 h at 4 °C. […] The protein was concentrated in an amicon unit (Millipore, Billerica, USA) and digested over night at 4 °C with TEV-protease. The protease was removed from cleaved Sirt2 by incubation with Ni-NTA resin for 1 h at 4 °C. The protein was concentrated, 1:5 diluted with 50 mM Tris/HCl, pH 7.8, and applied to a HiTrap Q anion exchange column (GE Healthcare) equilibrated with 50 mM Tris/HCl, pH 7.8, 50 mM NaCl, 2 mM DTT and eluted with a gradient (20 column volumes) to 50 mM Tris/HCl, pH 7.8, 1 M NaCl, 2 mM DTT. Sirt2 was then applied to a Superdex200 gel filtration column (GE Healthcare) equilibrated in 20 mM Tris/HCl, pH 7.8, 150 mM NaCl, 2 mM DTT. The eluted protein was analyzed by SDS-PAGE, re-concentrated, and shock-frozen in liquid nitrogen for storage at -80 °C.
(§1) The commercial Fluor-de-Lys (FdL) assay kits 1 and 2 (Biomol, Plymouth Meeting, USA) were used to test the deacetylase activity of the four Sirtuins. In both kits the substrate derived from p53 is composed of three amino acids, the acetyl lysine and a C-terminally attached fluorophor. For Sirt2 and 3, FdL-2 peptide (QPK(acetyl-K)) was used, and FdL-1 peptide (RHK(acetyl-K)) for Sirt5 and Sirt6. All tests were done with 0.1 mM of the respective FdL peptide and 0.5 mM NAD^+ as substrates.
(§2) NCI compound stocks were prepared by dissolving them in DMSO at a concentration of 5 mM. The initial screens with all 40 compounds contained 5 μl Sirtuin solution (Sirt2/3 0.1 mg/ml stock concentration; Sirt5/6 1 mg/ml), 1 μl of compound stock (resulting in a 100 μM end concentration), 15 μl FdL substrate, and assay buffer (supplied in the assay kit) to a total volume of 50 μl. As control reactions, peptide with either the compound (without Sirtuin) or with Sirtuin and DMSO instead of compound were measured. After starting the reactions by adding the FdL substrate, assays were incubated for 30 min at 37 °C. Subsequently, 50 μl of a 10 mg/ml trypsin stock (“Developer solution”) were added and the reactions were incubated for 45 min at room temperature. Fluorescence values were measured in a fluorometric plate reader with excitation at 360 nm and read out at 485 nm. Values were then corrected with the control reaction (same compound, but without Sirtuin).
(§3) All measurements shown are averages of duplicates (screen) or triplicates (dose-response curves), and representatives of at least two independent replications. Error bars indicate standard deviations.

The next test has as its target T2, Sirt3 (Homo sapiens, UniProt Q9NTG7).
T2 construct: Sirt3 residues 114-399; His-tag with linker comprising a TEV protease cleavage site (N); made in house; host or cells: E. coli
T2 sequence (Q9NTG7 114-399): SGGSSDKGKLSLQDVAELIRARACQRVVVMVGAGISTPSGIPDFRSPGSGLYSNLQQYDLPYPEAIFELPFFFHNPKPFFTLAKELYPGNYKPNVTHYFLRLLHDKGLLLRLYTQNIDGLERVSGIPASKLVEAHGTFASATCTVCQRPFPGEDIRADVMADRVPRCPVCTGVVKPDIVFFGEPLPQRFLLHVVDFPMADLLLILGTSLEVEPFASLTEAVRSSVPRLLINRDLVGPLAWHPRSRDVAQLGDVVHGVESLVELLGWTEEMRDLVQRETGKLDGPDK
Kind of test: Fluor-de-Lys peptide deacetylation assay, Sirt3. On the procedure: (§4) Sirt3 was expressed in E. coli and purified via Ni-NTA and size exclusion chromatography as described elsewhere, and Sirt5 according to the protocol of Schuetz et al.. […] The protein was bound to the HiTrapQ column in buffer A and eluted in a gradient to buffer A supplemented with 400 mM KCl. Fractions were analyzed by SDS-PAGE, and the Sirt1 fractions were pooled and transferred into buffer A using a NAP column (GE Healthcare).
as §1, §2, §3

The next test deals with T3, Sirt5 (Homo sapiens, UniProt Q9NXA8).
T3 construct: Sirt5 residues 34-302; His-tag with linker comprising a TEV protease cleavage site (N); made in house
T3 sequence (Q9NXA8 34-302): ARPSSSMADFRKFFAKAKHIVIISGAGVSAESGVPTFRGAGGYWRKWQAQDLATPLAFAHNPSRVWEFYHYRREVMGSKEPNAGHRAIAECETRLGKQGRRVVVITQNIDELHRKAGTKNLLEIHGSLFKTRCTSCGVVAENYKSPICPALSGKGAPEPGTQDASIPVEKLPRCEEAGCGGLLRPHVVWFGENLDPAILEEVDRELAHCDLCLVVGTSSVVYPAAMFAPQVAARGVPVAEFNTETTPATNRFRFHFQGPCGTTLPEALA
In words: Fluor-de-Lys peptide deacetylation assay, Sirt5. On the procedure:
as §4, §1, §2, §3

For the next test, the target named is T4, Sirt6 (Homo sapiens, UniProt Q8N6T7).
T4 construct: Sirt6 residues 13-308; His-tag with linker comprising a TEV protease cleavage site (N, cleaved yes); made in house; host or cells: E. coli Rosetta2
T4 sequence (Q8N6T7 13-308): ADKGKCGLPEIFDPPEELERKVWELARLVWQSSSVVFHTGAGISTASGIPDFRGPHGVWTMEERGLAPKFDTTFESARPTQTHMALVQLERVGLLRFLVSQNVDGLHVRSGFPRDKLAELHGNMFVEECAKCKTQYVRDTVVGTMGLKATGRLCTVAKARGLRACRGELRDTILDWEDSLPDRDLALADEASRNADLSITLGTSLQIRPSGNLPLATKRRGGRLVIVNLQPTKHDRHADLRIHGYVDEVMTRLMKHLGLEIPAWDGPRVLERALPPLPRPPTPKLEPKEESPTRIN
Kind of test: Fluor-de-Lys peptide deacetylation assay, Sirt6. Here is the method: as §1, §2, §3

Setting [1] is: 100 μM compound, 0.1 mM FdL-2 peptide, 0.5 mM NAD+.
The mark [2] stands for this setting: 100 μM compound, 0.1 mM FdL-1 peptide, 0.5 mM NAD+.

Turning to `O=S(=O)(c1cccc(C(F)(F)F)c1)N1c2ccccc2-n2cccc2C1c1cccnc1` (stereo not drawn) [CSC38, 4-(3-pyridinyl)-5-((3-(trifluoromethyl)phenyl)sulfonyl)-4,5-dihydropyrrolo[1,2-a]quinoxaline], at Sirt2 (setting [1]), the “Effect on the activity of Sirt2” value is reported as “inhibition (significant inhibitory effects (>25% loss of activity))”. Besides, the “Effect on the activity of Sirt3” value at Sirt3 (setting [1]) is “--- (no such effect)”. Moreover, the “Effect on the activity of Sirt5” value on Sirt5 (setting [2]) is “activation”. Besides, the “Effect on the activity of Sirt6” value on Sirt6 (setting [2]) is listed as “activation”.
Take `Cc1cc(C)cc(C(=N)c2ccccc2Cc2cccc3ccccc23)c1` [CSC23, (3,5-dimethylphenyl)(2-(1-naphthylmethyl)phenyl)methanimine]: the “Effect on the activity of Sirt2” value at Sirt2 (setting [1]) was “inhibition (significant inhibitory effects (>25% loss of activity))”. Besides, the “Effect on the activity of Sirt3” value on Sirt3 (setting [1]) is listed as “--- (no such effect)”. For the same molecule, the “Effect on the activity of Sirt5” value at Sirt5 (setting [2]) is recorded as “--- (no such effect)”. Also, the “Effect on the activity of Sirt6” value on Sirt6 (setting [2]) is reported as “--- (no such effect)”.
Consider `O=C1c2cc([N+](=O)[O-])ccc2-c2ccc3c4ccc5c6c(ccc(c7ccc1c2c73)c64)C(=O)c1cc([N+](=O)[O-])ccc1-5` [CSC14, 3,12bis(hydroxy(oxido)amino)anthra[9,1,2-cde]benzo[rst]pentaphene-5,10-dione, (Amanthrene Supra Black BBN)], for which, at Sirt2, the “Effect on the activity of Sirt2” value is reported as “inhibition (key: inhibition: significant inhibitory effects (>25% loss of activity); ---: no such effect)”. For the same molecule, at Sirt3, the “Effect on the activity of Sirt3” value was “--- (key: inhibition: significant inhibitory effects (>25% loss of activity); ---: no such effect)”. Further, the “Effect on the activity of Sirt5” value at Sirt5 is listed as “inhibition (key: inhibition: significant inhibitory effects (>25% loss of activity); ---: no such effect)”. Also, at Sirt6, the “Effect on the activity of Sirt6” value is on record as “--- (key: inhibition: significant inhibitory effects (>25% loss of activity); ---: no such effect)”.
For `O=S1(=O)CCN(c2ccccc2CC(c2c[nH]c3ccccc23)c2c[nH]c3ccccc23)CC1` [CSC11, 3-(2-(2-(1,1-dioxido-4-thiomorpholinyl)phenyl)-1-(1H-indol-3-yl)ethyl)-1H-indole], the “Effect on the activity of Sirt2” value at Sirt2 (setting [1]) is listed as “--- (no such effect)”. Moreover, the “Effect on the activity of Sirt3” value at Sirt3 (setting [1]) is recorded as “--- (no such effect)”. The “Effect on the activity of Sirt5” value at Sirt5 (setting [2]) is “--- (no such effect)”. Also, the “Effect on the activity of Sirt6” value at Sirt6 (setting [2]) is reported as “--- (no such effect)”.
For the molecule `O=c1c2ccccc2c2ccccc2c(=O)n1-c1cc2c3ccccc3ccc2c2ccccc12` [CSC31, 6-(6-chrysenyl)-5H-dibenzo[c,e]azepine-5,7(6H)-dione], the “Effect on the activity of Sirt2” value on Sirt2 is listed as “--- (key: inhibition: significant inhibitory effects (>25% loss of activity); ---: no such effect)”. Moreover, the “Effect on the activity of Sirt3” value on Sirt3 is listed as “--- (key: inhibition: significant inhibitory effects (>25% loss of activity); ---: no such effect)”. In addition, the “Effect on the activity of Sirt5” value at Sirt5 is recorded as “--- (key: inhibition: significant inhibitory effects (>25% loss of activity); ---: no such effect)”. Moreover, the “Effect on the activity of Sirt6” value at Sirt6 was “--- (key: inhibition: significant inhibitory effects (>25% loss of activity); ---: no such effect)”.
Take `O=C1c2ccccc2-c2ccc(/N=[N+](\[O-])c3ccc4c(c3)C(=O)c3ccccc3-4)cc21` [CSC3]: the “Effect on the activity of Sirt2” value at Sirt2 (setting [1]) is given as “--- (no such effect)”. In addition, at Sirt3 (setting [1]), the “Effect on the activity of Sirt3” value is given as “--- (no such effect)”. The “Effect on the activity of Sirt5” value on Sirt5 (setting [2]) was “--- (no such effect)”. Further, on Sirt6 (setting [2]), the “Effect on the activity of Sirt6” value is recorded as “--- (no such effect)”.
As for `O=C1c2cccc([N+](=O)[O-])c2C(=O)N1c1ncn[nH]1` [CSC25, 4-(hydroxy(oxido)amino)-2-(1H-1,2,4-triazol-5-yl)-1H-isoindole-1,3(2H)-dione], the “Effect on the activity of Sirt2” value on Sirt2 (setting [1]) is listed as “--- (no such effect)”. Besides, at Sirt3 (setting [1]), the “Effect on the activity of Sirt3” value is on record as “--- (no such effect)”. In addition, the “Effect on the activity of Sirt5” value on Sirt5 (setting [2]) is “--- (no such effect)”. Also, the “Effect on the activity of Sirt6” value on Sirt6 (setting [2]) is “--- (no such effect)”.
Consider `O=C1c2ccccc2C(=O)c2c(Nc3cc4c5c(ccc6c7ccc8c9c(cc(Nc%10cccc%11c%10C(=O)c%10ccccc%10C%11=O)c(c3c56)c97)-c3ccccc3C8=O)C(=O)c3ccccc3-4)cccc21` [CSC6, 16,17-bis((9,10-dioxo-9,10-dihydro-1-anthracenyl)amino)anthra[9,1,2-cde]benzo[rst]pentaphene-5,10-dione], for which, at Sirt2 (setting [1]), the “Effect on the activity of Sirt2” value is reported as “inhibition (significant inhibitory effects (>25% loss of activity))”. For the same molecule, the “Effect on the activity of Sirt3” value on Sirt3 (setting [1]) was “--- (no such effect)”. Besides, the “Effect on the activity of Sirt5” value at Sirt5 (setting [2]) was “--- (no such effect)”. Also, on Sirt6 (setting [2]), the “Effect on the activity of Sirt6” value is “inhibition (significant inhibitory effects (>25% loss of activity))”.
For `CN1C[C@H](C(=O)N[C@]2(C)O[C@@]3(O)[C@@H]4CCCN4C(=O)[C@H](Cc4ccccc4)N3C2=O)C=C2c3cccc4[nH]cc(c34)C[C@H]21` [CSC21, 5'-benzyl-12'-hydroxy-2'-methyl-3',6',18-trioxoergotaman, (Ergotamine), reference compound], the “Effect on the activity of Sirt2” value at Sirt2 is reported as “inhibition (key: inhibition: significant inhibitory effects (>25% loss of activity); ---: no such effect)”. For the same molecule, at Sirt3, the “Effect on the activity of Sirt3” value is given as “--- (key: inhibition: significant inhibitory effects (>25% loss of activity); ---: no such effect)”. In addition, at Sirt5, the “Effect on the activity of Sirt5” value is on record as “inhibition (key: inhibition: significant inhibitory effects (>25% loss of activity); ---: no such effect)”. In addition, the “Effect on the activity of Sirt6” value on Sirt6 is “inhibition (key: inhibition: significant inhibitory effects (>25% loss of activity); ---: no such effect)”.
